In PubChem BioAssay AID2141 (Sanford-Burnham Center for Chemical Genomics, 2009):
Activity calls are given as the source filed them. The rule behind the calls is not given here.

target: E3 ubiquitin-protein ligase SIAH1 (Homo sapiens) (UniProt Q8IUQ4); assay: Siah-1 binding antagonists, dose response, biochemical, TR-FRET (AID 2141); conditions: TR-FRET biochemical assay

Structure (SMILES)	IC50
CN(Cc1c(C(=O)N/N=C/c2ccc(F)cc2)nnn1-c1nonc1N)C1CCCCC1	> 200 µM (inactive)
O=c1[nH]c(-c2ccc(F)cc2)nc2c1sc(=S)n2-c1ccccc1	> 200 µM (inactive)
CCCCNc1c2c3c(cccc3n(C)c1=O)C(=O)c1ccccc1-2	> 200 µM (inactive)
O=C(N/N=C/c1ccc(OC(=O)c2cccs2)cc1)c1cccc(F)c1	1.79 µM
O=C(Nc1ccc(Cl)cc1)OCc1cn(-c2ccccc2)nn1	> 200 µM (inactive)

Results, then the compound that gave them:

IC50	Structure (SMILES)
6.05 µM	O=S(=O)(Nc1cc2nc3ccccc3nc2n1Cc1ccccc1)c1ccc(Cl)cc1
5.04 µM	Cc1ccccc1NC(=O)CN1C(=O)N/C(=C\c2ccccc2OCc2ccc(C(=O)O)cc2)C1=O
< 1.56 µM	NS(=O)(=O)c1ccc(NS(=O)(=O)c2ccc(NC(=O)c3ccc(-c4ccccc4)cc3)cc2)cc1
> 200 µM (inactive)	CCOc1cc(/C=C(\C#N)C(=O)Nc2ccccc2C(=O)O)ccc1OC(=O)c1ccc(C)cc1
